In patent US12668594B2, “TYK2 inhibitors and uses thereof” (Sudo Biosciences Limited, priority 2020, dated 2026):

Assays:
[1] = biological target: T1, TYK2 (Homo sapiens, UniProt P29597); assay: HEK-Blue IL-23 reporter assay (SEAP) for TYK2 pseudokinase inhibition; format: cell-based; design: HEK-Blue™ IL-23 and IFNα/β cells with a stably-integrated cytokine receptor and STAT3 or STAT1; host or cells: HEK-Blue IL-23 / HEK-Blue IFNα/β cells (HEK293 background); conditions: HEK-Blue IL-23 cells, 10 ng/mL human recombinant IL-23, SEAP reporter; read-out: IL23 IC50
T1 sequence (P29597 whole entry): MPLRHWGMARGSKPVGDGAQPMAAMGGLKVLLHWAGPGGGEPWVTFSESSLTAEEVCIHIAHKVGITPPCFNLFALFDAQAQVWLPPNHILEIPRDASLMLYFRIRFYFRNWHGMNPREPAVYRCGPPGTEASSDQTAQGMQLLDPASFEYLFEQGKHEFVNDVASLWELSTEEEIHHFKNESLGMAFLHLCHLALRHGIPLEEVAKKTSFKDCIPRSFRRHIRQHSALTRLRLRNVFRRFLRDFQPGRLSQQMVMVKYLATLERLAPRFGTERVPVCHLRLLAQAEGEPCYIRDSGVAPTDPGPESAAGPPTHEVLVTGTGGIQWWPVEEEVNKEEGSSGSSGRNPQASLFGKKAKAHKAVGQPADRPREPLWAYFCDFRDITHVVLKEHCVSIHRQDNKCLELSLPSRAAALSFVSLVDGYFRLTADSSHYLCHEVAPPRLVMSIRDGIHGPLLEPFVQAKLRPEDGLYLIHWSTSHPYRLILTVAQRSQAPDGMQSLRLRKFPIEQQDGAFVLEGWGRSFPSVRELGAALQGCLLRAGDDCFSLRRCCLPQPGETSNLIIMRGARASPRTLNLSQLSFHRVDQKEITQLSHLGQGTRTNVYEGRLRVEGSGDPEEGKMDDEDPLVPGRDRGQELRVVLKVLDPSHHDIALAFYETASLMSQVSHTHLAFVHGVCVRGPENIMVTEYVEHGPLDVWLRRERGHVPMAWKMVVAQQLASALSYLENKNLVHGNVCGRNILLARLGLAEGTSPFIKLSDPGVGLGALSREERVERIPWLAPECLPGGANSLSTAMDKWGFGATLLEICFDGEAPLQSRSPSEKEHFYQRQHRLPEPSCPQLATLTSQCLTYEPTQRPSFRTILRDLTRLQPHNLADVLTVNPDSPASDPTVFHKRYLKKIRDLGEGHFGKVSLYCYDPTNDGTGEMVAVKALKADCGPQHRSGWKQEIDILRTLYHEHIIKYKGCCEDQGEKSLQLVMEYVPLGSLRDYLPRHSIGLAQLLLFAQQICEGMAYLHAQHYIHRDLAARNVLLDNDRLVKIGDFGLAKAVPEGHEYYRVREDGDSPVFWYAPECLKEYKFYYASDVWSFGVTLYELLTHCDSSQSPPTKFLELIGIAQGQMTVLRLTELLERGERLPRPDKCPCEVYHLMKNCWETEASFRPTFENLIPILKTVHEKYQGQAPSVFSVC
Method: (§1) HEK-Blue™ IL-23 and IFNα/β cells with a stably-integrated cytokine receptor and STAT3 or STAT1 express STAT-inducible secreted embryonic alkaline phosphatase (SEAP) reporter gene upon cytokine stimulation. These cells are plated in DMVEM (Gibco) containing 10% heat-inactivated FBS (Gibco) and 100 U/mL PenStrep (Gibco) at 37° C. under […] conditions for 20-22 hours. The cells are then pretreated with serially diluted test compounds for 60 min prior to stimulation with either 10 ng/mL human recombinant IL-23 (Miltenyl Biotech) or 1 ng/mL human recombinant IFNα (InvivoGen) for 22-24 hours for IL-23 or 16-18 h for IFNα. SEAP induction is measured using the QUANTI Blue™ Solution (InvivoGen) according to the manufacturer's instructions. Inhibition data are calculated by comparison to no inhibitor control wells for 000 inhibition and non-stimulated control wells for 10000 inhibition. Dose response curves are generated to determine the concentration required to inhibit 5000 of cellular response (IC50) as derived by non-linear regression analysis.

[2] = biological target: T1, TYK2; assay: HEK-Blue IFNα/β reporter assay (SEAP) for TYK2 pseudokinase inhibition; format: cell-based; conditions: HEK-Blue IFNα/β cells, 1 ng/mL human recombinant IFNα
Method: as §1

SMILES | IC50 [1] | IC50 [2]
Cn1ccc(Nc2cc3c(cn2)c(=O)[nH]n3-c2ccccc2)n1 [Compound I-4, 6-((1-methyl-1H-pyrazol-3-yl)amino)-1-phenyl-1,2-dihydro-3H-pyrazolo[4,3-c]pyridin-3-one] | < 10 µM | 10 to 30 µM
Cn1cc(Nc2cc3c(cn2)c(=O)[nH]n3-c2ccccc2)cn1 [Compound I-5, 6-((1-methyl-1H-pyrazol-4-yl)amino)-1-phenyl-1,2-dihydro-3H-pyrazolo[4,3-c]pyridin-3-one] | 10 to 30 µM | 30 to 90 µM
Cc1cc(Nc2cc3c(cn2)c(=O)[nH]n3-c2ccccc2)ncc1F [Compound I-6, 6-((5-fluoro-4-methylpyridin-2-yl)amino)-1-phenyl-1,2-dihydro-3H-pyrazolo[4,3-c]pyridin-3-one] | < 10 µM | < 10 µM
COCCC(=O)Nc1cc2c(cn1)c(=O)[nH]n2-c1ccccc1 [Compound I-7, 3-methoxy-N-(3-oxo-1-phenyl-2,3-dihydro-1H-pyrazolo[4,3-c]pyridin-6-yl)propanamide] | 10 to 30 µM | 30 to 90 µM
Cc1nc(Nc2cc3c(cn2)c(=O)[nH]n3-c2ccccc2)cc(OC(C)C)n1 [Compound I-8, 6-((6-isopropoxy-2-methylpyrimidin-4-yl)amino)-1-phenyl-1,2-dihydro-3H-pyrazolo[4,3-c]pyridin-3-one] | < 10 µM | 10 to 30 µM
O=C(Nc1cc2c(cn1)c(=O)[nH]n2-c1ccccc1)c1ccccn1 [Compound I-9, N-(3-oxo-1-phenyl-2,3-dihydro-1H-pyrazolo[4,3-c]pyridin-6-yl)picolinamide] | > 90 µM | > 90 µM
O=C(Nc1cc2c(cn1)c(=O)[nH]n2-c1ccccc1)c1cccnc1 [Compound I-10, N-(3-oxo-1-phenyl-2,3-dihydro-1H-pyrazolo[4,3-c]pyridin-6-yl)nicotinamide] | > 90 µM | 
CC(C)N1CCN(c2cc3c(cn2)c(=O)[nH]n3-c2ccccc2)C1=O [Compound I-13, 6-(3-isopropyl-2-oxoimidazolidin-1-yl)-1-phenyl-1,2-dihydro-3H-pyrazolo[4,3-c]pyridin-3-one] | 30 to 90 µM | 
COc1ccccc1-n1[nH]c(=O)c2cnc(NC(=O)C3CC3)cc21 [Compound I-15, N-(1-(2-methoxyphenyl)-3-oxo-2,3-dihydro-1H-pyrazolo[4,3-c]pyridin-6-yl)cyclopropanecarboxamide] | 10 to 30 µM | 30 to 90 µM
COc1ccccc1-n1[nH]c(=O)c2cnc(Nc3ccc(F)cn3)cc21 [Compound I-16, 6-((5-fluoropyridin-2-yl)amino)-1-(2-methoxyphenyl)-1,2-dihydro-3H-pyrazolo[4,3-c]pyridin-3-one] | 30 to 90 µM | > 90 µM
Cc1cc(Nc2cc3c(cn2)c(=O)[nH]n3-c2cccc(C#N)c2)nc(C)n1 [Compound I-18, 3-(6-((2,6-dimethylpyrimidin-4-yl)amino)-3-oxo-2,3-dihydro-1H-pyrazolo[4,3-c]pyridin-1-yl)benzonitrile] | < 10 µM | 10 to 30 µM
COc1ccc(-n2[nH]c(=O)c3cnc(NC(=O)C4CC4)cc32)cc1 [Compound I-19, N-(1-(4-methoxyphenyl)-3-oxo-2,3-dihydro-1H-pyrazolo[4,3-c]pyridin-6-yl)cyclopropanecarboxamide] | < 10 µM | 10 to 30 µM
Cc1cc(Nc2cc3c(cn2)c(=O)[nH]n3-c2ccccc2S(C)(=O)=O)nc(C)n1 [Compound I-20, 6-((2,6-dimethylpyrimidin-4-yl)amino)-1-(2-(methylsulfonyl)phenyl)-1,2-dihydro-3H-pyrazolo[4,3-c]pyridin-3-one] | 10 to 30 µM | 30 to 90 µM
Cc1cc(Nc2cc3c(cn2)c(=O)[nH]n3-c2cccc(C(N)=O)c2)nc(C)n1 [Compound I-21, 3-(6-((2,6-dimethylpyrimidin-4-yl)amino)-3-oxo-2,3-dihydro-1H-pyrazolo[4,3-c]pyridin-1-yl)benzamide] | > 90 µM | 
COc1c(-c2ncn(C)n2)cccc1-n1[nH]c(=O)c2cnc(Nc3cc(C)nc(C)n3)cc21 [Compound I-22, 6-[(2,6-dimethylpyrimidin-4-yl)amino]-1-[2-methoxy-3-(1-methyl-1H-1,2,4-triazol-3-yl)phenyl]-1H,2H,3H-pyrazolo[4,3-c]pyridin-3-one] | < 10 µM | 10 to 30 µM
Cc1cc(Nc2cc3c(cn2)c(=O)[nH]n3-c2cccc(-c3ncn(C)n3)c2)nc(C)n1 [Compound I-23, 6-((2,6-dimethylpyrimidin-4-yl)amino)-1-(3-(1-methyl-1H-1,2,4-triazol-3-yl)phenyl)-1,2-dihydro-3H-pyrazolo[4,3-c]pyridin-3-one] | < 10 µM | 10 to 30 µM
COc1cccc(-n2[nH]c(=O)c3cnc(Nc4cc(C)nc(C)n4)c(F)c32)c1 [Compound I-24, 6-((2,6-dimethylpyrimidin-4-yl)amino)-7-fluoro-1-(3-methoxyphenyl)-1,2-dihydro-3H-pyrazolo[4,3-c]pyridin-3-one] | 10 to 30 µM | > 90 µM
CS(=O)(=O)c1ccccc1-n1[nH]c(=O)c2cnc(Nc3ccc(F)cn3)cc21 [Compound I-26, 6-((5-fluoropyridin-2-yl)amino)-1-(2-(methylsulfonyl)phenyl)-1,2-dihydro-3H-pyrazolo[4,3-c]pyridin-3-one] | < 10 µM | < 10 µM
Cc1cc(Nc2cc3c(cn2)c(=O)[nH]n3-c2cccc(S(C)(=O)=O)c2)nc(C)n1 [Compound I-27, 6-((2,6-dimethylpyrimidin-4-yl)amino)-1-(3-(methylsulfonyl)phenyl)-1,2-dihydro-3H-pyrazolo[4,3-c]pyridin-3-one] | > 90 µM | 
Cc1cc(Nc2cc3c(cn2)c(=O)[nH]n3-c2cccc(OC(F)(F)F)c2)nc(C)n1 [Compound I-28, 6-((2,6-dimethylpyrimidin-4-yl)amino)-1-(3-(trifluoromethoxy)phenyl)-1,2-dihydro-3H-pyrazolo[4,3-c]pyridin-3-one] | < 10 µM | < 10 µM
Cc1cc(Nc2cc3c(cn2)c(=O)[nH]n3-c2cccc(C(F)(F)F)c2)ncc1F [Compound I-29, 6-((5-fluoro-4-methylpyridin-2-yl)amino)-1-(3-(trifluoromethyl)phenyl)-1,2-dihydro-3H-pyrazolo[4,3-c]pyridin-3-one] | < 10 µM | < 10 µM
COc1cccc(-n2[nH]c(=O)c3cnc(Nc4cc(C(F)(F)F)ccn4)cc32)c1 [Compound I-43, 1-(3-methoxyphenyl)-6-((4-(trifluoromethyl)pyridin-2-yl)amino)-1,2-dihydro-3H-pyrazolo[4,3-c]pyridin-3-one] | > 90 µM | 
O=c1[nH]n(-c2cc(Cl)cc(Cl)c2)c2cc(Nc3ccc(F)cn3)ncc12 [Compound I-97, 1-(3,5-dichlorophenyl)-6-((5-fluoropyridin-2-yl)amino)-1,2-dihydro-3H-pyrazolo[4,3-c]pyridin-3-one] | > 90 µM | 
Cc1cc(Nc2cc3c(cn2)c(=O)[nH]n3-c2ccc(C(N)=O)cc2)nc(C)n1 [Compound I-123, 4-(6-((2,6-dimethylpyrimidin-4-yl)amino)-3-oxo-2,3-dihydro-1H-pyrazolo[4,3-c]pyridin-1-yl)benzamide] | > 90 µM | 
COc1cccc(-n2[nH]c(=O)c3cnc(NC(=O)C4(O)CC4)cc32)c1 [Compound I-124, 1-hydroxy-N-(1-(3-methoxyphenyl)-3-oxo-2,3-dihydro-1H-pyrazolo[4,3-c]pyridin-6-yl)cyclopropane-1-carboxamide] | < 10 µM | 
